From the supplement of paper PMC10307832

Columns and labels:
Test in all cases: relative viability (nuclei count vs DMSO), 5 days (fraction); higher = more cells survive
[1] = compound: O=C(c1cc(Cc2n[nH]c(=O)c3ccccc23)ccc1F)N1CCN(C(=O)C2CC2)CC1 [Olaparib] + NC(=O)Nc1cc(-c2cccc(F)c2)sc1C(=O)N[C@H]1CCCNC1 [AZD7762] (partner 0.2 µM)
In short: (§1)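 Nuclei were stained with Hoechst during a one-step fixation (final 0.05% Triton X-100, 1% formaldehyde, 1 ug/ml Hoechst) carried out 5 days after dosing, then counted on 4× images. The cells, lung cancer lines in 1536-well plates, had been dosed by pin tool the day after seeding with one drug alone or a fixed anchor-drug dose plus five library-drug doses (not always all listed) in √10 steps. Relative viability is the nuclei count in treated wells divided by that in vehicle wells, and each value is the median of duplicate plates.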

[2] = compound: C[C@@H](Oc1cc(-c2cnn(C3CCNCC3)c2)cnc1N)c1c(Cl)ccc(F)c1Cl [Crizotinib] + CS(=O)(=O)CCNCc1ccc(-c2ccc3ncnc(Nc4ccc(OCc5cccc(F)c5)c(Cl)c4)c3c2)o1 [Lapatinib] (partner 2 µM)
In short: as §1

[3] = compound: CC(C)C[C@H](NC(=O)[C@H](CCc1ccccc1)NC(=O)CN1CCOCC1)C(=O)N[C@@H](Cc1ccccc1)C(=O)N[C@@H](CC(C)C)C(=O)[C@@]1(C)CO1 [Carfilzomib] + CC(C)C[C@H](NC(=O)[C@H](Cc1ccccc1)NC(=O)c1cnccn1)B(O)O [Bortezomib] (partner 0.002 µM)
In short: as §1

[4] = compound: CC(C)C[C@H](NC(=O)[C@H](CCc1ccccc1)NC(=O)CN1CCOCC1)C(=O)N[C@@H](Cc1ccccc1)C(=O)N[C@@H](CC(C)C)C(=O)[C@@]1(C)CO1 [Carfilzomib] + Cc1nc(NC(=O)N2CCC[C@H]2C(N)=O)sc1-c1ccnc(C(C)(C)C(F)(F)F)c1 [Alpelisib] (partner 2 µM)
In short: as §1

PC-3 [JPC-3]
relative viability ([1]; first compound 0.08 µM): 0.887
relative viability ([1]; first compound 2.53 µM): 0.866
relative viability ([1]; first compound 8 µM): 0.926
relative viability ([2]; first compound 0.01 µM): 0.408
relative viability ([2]; first compound 0.03162 µM): 0.448
relative viability ([2]; first compound 0.1 µM): 0.446
relative viability ([2]; first compound 0.3162 µM): 0.422
relative viability ([2]; first compound 1 µM): 0.459
relative viability ([3]; first compound 0.001 µM): 0.864
relative viability ([3]; first compound 0.003162 µM): 0.767
relative viability ([3]; first compound 0.01 µM): 0.581
relative viability ([3]; first compound 0.03162 µM): 0.245
relative viability ([3]; first compound 0.1 µM): 0.147
relative viability ([4]; first compound 0.001 µM): 1.07
relative viability ([4]; first compound 0.003162 µM): 1.08
relative viability ([4]; first compound 0.01 µM): 1.02
relative viability ([4]; first compound 0.03162 µM): 0.824
relative viability ([4]; first compound 0.1 µM): 0.257

PC-14
relative viability ([1]; first compound 0.08 µM): 0.4
relative viability ([1]; first compound 0.253 µM): 0.334
relative viability ([1]; first compound 2.53 µM): 0.355
relative viability ([1]; first compound 8 µM): 0.205
relative viability ([2]; first compound 0.01 µM): 0.297
relative viability ([2]; first compound 0.03162 µM): 0.339
relative viability ([2]; first compound 0.1 µM): 0.312
relative viability ([2]; first compound 0.3162 µM): 0.304
relative viability ([2]; first compound 1 µM): 0.304
relative viability ([3]; first compound 0.001 µM): 0.888
relative viability ([3]; first compound 0.003162 µM): 0.963
relative viability ([3]; first compound 0.01 µM): 0.494
relative viability ([3]; first compound 0.03162 µM): 0.0957
relative viability ([3]; first compound 0.1 µM): 0.0938
relative viability ([4]; first compound 0.001 µM): 0.958
relative viability ([4]; first compound 0.003162 µM): 0.981
relative viability ([4]; first compound 0.01 µM): 0.976
relative viability ([4]; first compound 0.03162 µM): 0.0805
relative viability ([4]; first compound 0.1 µM): 0.0691

RERF-LC-KJ
relative viability ([1]; first compound 0.08 µM): 1.11
relative viability ([1]; first compound 0.253 µM): 0.825
relative viability ([1]; first compound 2.53 µM): 0.883
relative viability ([1]; first compound 8 µM): 1.08
relative viability ([2]; first compound 0.01 µM): 0.801
relative viability ([2]; first compound 0.03162 µM): 0.881
relative viability ([2]; first compound 0.1 µM): 0.853
relative viability ([2]; first compound 1 µM): 0.838
relative viability ([3]; first compound 0.001 µM): 0.994
relative viability ([3]; first compound 0.003162 µM): 1.05
relative viability ([3]; first compound 0.01 µM): 0.926
relative viability ([3]; first compound 0.03162 µM): 0.47
relative viability ([3]; first compound 0.1 µM): 0.258
relative viability ([4]; first compound 0.001 µM): 0.847
relative viability ([4]; first compound 0.003162 µM): 0.873
relative viability ([4]; first compound 0.01 µM): 0.842
relative viability ([4]; first compound 0.03162 µM): 0.645
relative viability ([4]; first compound 0.1 µM): 0.227
